Experimental data published in patent US20110044936A1, “Composition for Attracting Bed Bugs” (priority 2009, published 2011).

Legend:
Assay type in all cases: in vivo
[1] = system: bed bugs (Cimex lectularius); test: Bed bug aggregation assay, mixtures of Hexenal and Octenal (Example 2); details: about 30 ppm in silicone oil; for Number of bed bugs under experimental (Exp) disk: 5 microliters, ten bed bugs, average of two tests
Protocol: Attraction Assays: […] For this experiment, mixtures of Hexenal and Octenal were diluted in silicone oil at the following ratios: 100:0; 75:25; 50:50; 25:75; and 0:100. […] Readings were taken hourly for four hours from the release of bed bugs in the assay arena. The number of bed bugs under the control disk and the number of bed bugs under the experimental disk were recorded. The test treatment was considered to be an attractant if the number of bed bugs under the experimental filter disk was greater than the number under the control disk. Table 2 below summarizes the experimental data, the experimental test treatments considered as attractants are in bold.

[2] = system: bed bugs (Cimex lectularius); test: Test arena gas assay, compounds dissolved in nonane (Example 5); details: for % Bed bugs in Experimental Zone: after two hour exposure, released from nonane solution at 150.0-184.8 nanograms/hour @ 100 mL/min air flow, test gas 21-22 °C, control gas compressed air; for Attraction of bed bugs to gaseous mixture: test arena, two hour exposure, versus control gas
From the text: A test arena was constructed from a 60×40×22 cm (L:W:H) polystyrene container. A 60×40 cm piece of filter paper was glued on the bottom to provide a walking surface for the bed bugs. At one end of the test arena, a triangular piece of plastic (16 cm high×25 cm long) was glued to the middle of the side and bottom of the container to create test zones of equal area on either side of the partition. On each side of this partition a piece of Tygon® tubing was inserted through a hole 7 cm above the bottom of each test zone to deliver a control gas to one side of the partition (control zone) and the experimental gas to the other side of the partition (experimental zone). The tubing was positioned to deliver the gases downward into the test zones with each outlet 6 cm above the filter paper glued to the bottom of the container. At the other end of the test arena, a 4 W night light was placed 35 cm above the bottom of the arena and regulated to a 12 hour light:12 hour dark (7 AM On: 7 PM Off) light cycle. Also placed adjacent to the night light was a small fan (Boston, cat#EHSDF) to create a gentle removal of gases from the distal part of the arena. Air released by the experimental and control gases was contained within their partitions and were gently drawn away from the respective air inputs, mixed within the arena and removed by the fan. This created a laminar flow where the bed bugs had opportunity to select either the experimental or control gas. Fifty bed bugs (Cimex lectularius) were entrapped within an inverted 90 mm Petri dish at a position furthest from the control and experimental zones until bed bugs were quiescent. Removal of the Petri dish started the experiment and readings were taken every hour for two hours. Data collected were number of bed bugs in the experimental, control and free arena zones. In addition, gas temperature, relative humidity, air flow rate, and percent CO2 data were collected. The experimental gas was considered to be an attractant if more bed bugs were in the experimental zone than in the control zone.
Determination of Bed Bug Aggregation Effect Using Hexenal, Butyric Acid, trans-2-Hexen-1-al Diethylacetal, Trimethylsilyl Butyrate or Methyl Butyrate Dissolved in an Alkane Solvent Using the test arena and methods described in Example 4, test treatments containing about 300 ppm of a pro-aldehyde compound, trans-2-hexen-1-al diethylacetal, dissolved in nonane, about 300 ppm of Hexenal dissolved in nonane, about 200 ppm of butyric acid dissolved in nonane and about 200 ppm of a pro-organic acid compound, trimethylsilyl butyrate or methyl butyrate, dissolved in nonane were prepared. Separate 100 micro liter pipettes (Drummond Wiretrol 100 μL) were filled with the test solutions. One end of each micro liter pipette was sealed with parafilm leaving one end of each open. […] An air tight lid was placed onto the plastic container and the container was installed in-line after humidity and temperature conditioning of the gas and before the gas entered the arena. The micro liter pipettes were weighed before and after use to determine the amount of the test compounds released. The control gas used for these experiments consisted of house compressed air.

[3] = system: bed bugs (Cimex lectularius); test: Bed bug aggregation (attraction) assay, Petri dish arena with treated and control filter paper tents (Example 1)
Protocol: Attraction Assays: Assay arenas were made from 150×15 mm plastic Petri dishes (VWR#25384-326) containing a 125 mm piece off qualitative filter paper (VWR#28320-100) glued to the bottom using 3M Super 77® multipurpose spray adhesive. A 80 mm hole was cut into the lid and a 500 um mesh Nytex® screen (Bioquip, #7293B) was glued to cover the opening using quick epoxy. Fresh bottom dishes were used in each assay. For these experiments 2.4 cm filter paper folded to create a tent were treated with either a control treatment (10 microliters of silicone oil for aldehyde controls and 5 microliters of deionized water for acid controls) or 10 microliters of the experimental test treatment diluted in silicone oil (aldehydes) or 5 microliters of the experimental chemical diluted in deionized water (acids). Ten bed bugs per test were released into the assay arena for the aldehyde test treatments and controls, five bed bugs per test were released into the assay arena for the acid test treatments. Day cycling bed bugs (Cimex lectularius), 12 hour light: 12 hour dark (7 AM On: 7 PM Off) light cycle, were incubated and evaluated under normal room lighting conditions at room temperature. Readings were taken at 1 hour intervals from the release of bed bugs for 4 hours for aldehydes and one hour for acids, due to the quick volatility of the acids. The number of bed bugs under the control filter paper disk and the number of bed bugs under the test treatment filter paper disk were recorded. The test treatment was considered to be an attractant if the number of bed bugs under the experimental filter disk was greater than the number under the control filter disk. Table 1 below summarizes the experimental data, the experimental test treatments considered as attractants are in bold.

[4] = 1 ppm in silicone oil, 10 microliters, 1 Hour, ten bed bugs, average of two tests
[5] = 1 ppm in silicone oil, 10 microliters, 2 Hour, ten bed bugs, average of two tests
[6] = 1 ppm in silicone oil, 10 microliters, 3 Hour, ten bed bugs, average of two tests
[7] = 1 ppm in silicone oil, 10 microliters, 4 Hour, ten bed bugs, average of two tests
[8] = 10 ppm in silicone oil, 10 microliters, 1 Hour, ten bed bugs, average of two tests
[9] = 10 ppm in silicone oil, 10 microliters, 2 Hour, ten bed bugs, average of two tests
[10] = 10 ppm in silicone oil, 10 microliters, 3 Hour, ten bed bugs, average of two tests
[11] = 10 ppm in silicone oil, 10 microliters, 4 Hour, ten bed bugs, average of two tests
[12] = 100 ppm in silicone oil, 10 microliters, 1 Hour, ten bed bugs, average of two tests
[13] = 100 ppm in silicone oil, 10 microliters, 2 Hour, ten bed bugs, average of two tests
[14] = 100 ppm in silicone oil, 10 microliters, 3 Hour, ten bed bugs, average of two tests
[15] = 100 ppm in silicone oil, 10 microliters, 4 Hour, ten bed bugs, average of two tests
[16] = 1000 ppm in silicone oil, 10 microliters, 1 Hour, ten bed bugs, average of two tests
[17] = 1000 ppm in silicone oil, 10 microliters, 2 Hour, ten bed bugs, average of two tests
[18] = 1000 ppm in silicone oil, 10 microliters, 3 Hour, ten bed bugs, average of two tests
[19] = 1000 ppm in silicone oil, 10 microliters, 4 Hour, ten bed bugs, average of two tests
[20] = 10000 ppm in silicone oil, 10 microliters, 1 Hour, ten bed bugs, one test
[21] = 10000 ppm in silicone oil, 10 microliters, 2 Hour, ten bed bugs, one test
[22] = 10000 ppm in silicone oil, 10 microliters, 3 Hour, ten bed bugs, one test
[23] = 10000 ppm in silicone oil, 10 microliters, 4 Hour, ten bed bugs, one test
[24] = at a high concentration of about 10,000 ppm
[25] = organic acid 10 ppm in deionized water, 5 microliters, one hour, five bed bugs, average of two tests
[26] = organic acid 50 ppm in deionized water, 5 microliters, one hour, five bed bugs, average of two tests
[27] = organic acid 100 ppm in deionized water, 5 microliters, one hour, five bed bugs, average of two tests
[28] = organic acid 1000 ppm in deionized water, 5 microliters, one hour, five bed bugs, average of two tests

CCC/C=C/C=O [Hexenal, trans-2-hexen-1-al]
Number of bed bugs under experimental (Exp) disk ([1]; 1 Hour): 3
Number of bed bugs under experimental (Exp) disk ([1]; 2 Hour): 3
Number of bed bugs under experimental (Exp) disk ([1]; 3 Hour): 4.5
Number of bed bugs under experimental (Exp) disk ([1]; 4 Hours): 5
% Bed bugs in Experimental Zone [2]: 38.0%
Attraction of bed bugs to gaseous mixture [2]: attracted
Number of bed bugs under experimental (Exp) filter paper disk [3, 4]: 4
Number of bed bugs under experimental (Exp) filter paper disk [3, 5]: 6
Number of bed bugs under experimental (Exp) filter paper disk [3, 6]: 6.5
Number of bed bugs under experimental (Exp) filter paper disk [3, 7]: 6
Number of bed bugs under experimental (Exp) filter paper disk [3, 8]: 3
Number of bed bugs under experimental (Exp) filter paper disk [3, 9]: 3.5
Number of bed bugs under experimental (Exp) filter paper disk [3, 10]: 4
Number of bed bugs under experimental (Exp) filter paper disk [3, 11]: 5.5
Number of bed bugs under experimental (Exp) filter paper disk [3, 12]: 6.5
Number of bed bugs under experimental (Exp) filter paper disk [3, 13]: 8
Number of bed bugs under experimental (Exp) filter paper disk [3, 14]: 9
Number of bed bugs under experimental (Exp) filter paper disk [3, 15]: 8.5
Number of bed bugs under experimental (Exp) filter paper disk [3, 16]: 6
Number of bed bugs under experimental (Exp) filter paper disk [3, 17]: 7
Number of bed bugs under experimental (Exp) filter paper disk [3, 18]: 9
Number of bed bugs under experimental (Exp) filter paper disk [3, 19]: 9
Number of bed bugs under experimental (Exp) filter paper disk [3, 20]: 0
Number of bed bugs under experimental (Exp) filter paper disk [3, 21]: 1
Number of bed bugs under experimental (Exp) filter paper disk [3, 22]: 1
Number of bed bugs under experimental (Exp) filter paper disk [3, 23]: 1
Attractiveness to bed bugs [3, 24]: much less attractive

CCCCC/C=C/C=O [Octenal, trans-2-octen-1-al]
Number of bed bugs under experimental (Exp) disk ([1]; 1 Hour): 7.5
Number of bed bugs under experimental (Exp) disk ([1]; 2 Hour): 7.5
Number of bed bugs under experimental (Exp) disk ([1]; 3 Hour): 9
Number of bed bugs under experimental (Exp) disk ([1]; 4 Hours): 8.5
Attraction of bed bugs to experimental filter disks ([1]; compared among H:O ratios): most bed bugs were attracted
Number of bed bugs under experimental (Exp) filter paper disk [3, 4]: 1
Number of bed bugs under experimental (Exp) filter paper disk [3, 5]: 2
Number of bed bugs under experimental (Exp) filter paper disk [3, 6]: 3.5
Number of bed bugs under experimental (Exp) filter paper disk [3, 7]: 5
Number of bed bugs under experimental (Exp) filter paper disk [3, 8]: 2
Number of bed bugs under experimental (Exp) filter paper disk [3, 9]: 4
Number of bed bugs under experimental (Exp) filter paper disk [3, 10]: 4.5
Number of bed bugs under experimental (Exp) filter paper disk [3, 11]: 4
Number of bed bugs under experimental (Exp) filter paper disk [3, 12]: 5
Number of bed bugs under experimental (Exp) filter paper disk [3, 13]: 6.5
Number of bed bugs under experimental (Exp) filter paper disk [3, 14]: 7
Number of bed bugs under experimental (Exp) filter paper disk [3, 15]: 6.5
Number of bed bugs under experimental (Exp) filter paper disk [3, 16]: 5
Number of bed bugs under experimental (Exp) filter paper disk [3, 17]: 4.5
Number of bed bugs under experimental (Exp) filter paper disk [3, 18]: 5
Number of bed bugs under experimental (Exp) filter paper disk [3, 19]: 5
Number of bed bugs under experimental (Exp) filter paper disk [3, 20]: 2
Number of bed bugs under experimental (Exp) filter paper disk [3, 21]: 2
Number of bed bugs under experimental (Exp) filter paper disk [3, 22]: 2
Number of bed bugs under experimental (Exp) filter paper disk [3, 23]: 4
Attractiveness to bed bugs [3, 24]: much less attractive
Attractiveness to bed bugs ([3]; at concentrations below about 100 ppm): less attractive

CCCC(=O)OC [methyl butyrate]
% Bed bugs in Experimental Zone [2]: 34.0%
Attraction of bed bugs to gaseous mixture [2]: attracted

CCCCC=O [Valeraldehyde, reference compound]
Number of bed bugs under experimental (Exp) filter paper disk ([3]; 10 milligrams delivered in 10 microliters methanol solution, one experimental disk versus 6 methanol control disks, 1 Hour, average of two tests): 0.1
Attractiveness to bed bugs ([3]; saturated aldehyde, 10 milligrams on disk, one hour): not attractive

CC(=O)O [Acetic acid, reference compound]
Number of bed bugs under experimental (Exp) filter paper disk [3, 25]: 0
Number of bed bugs under experimental (Exp) filter paper disk [3, 26]: 1
Number of bed bugs under experimental (Exp) filter paper disk [3, 27]: 1
Number of bed bugs under experimental (Exp) filter paper disk [3, 28]: 3
Number of bed bugs under experimental (Exp) filter paper disk ([3]; organic acid 10000 ppm in deionized water, 5 microliters, one hour, five bed bugs, average of two tests): 3

O=CO [Formic acid, reference compound]
Number of bed bugs under experimental (Exp) filter paper disk [3, 25]: 0
Number of bed bugs under experimental (Exp) filter paper disk [3, 26]: 1
Number of bed bugs under experimental (Exp) filter paper disk [3, 27]: 1
Number of bed bugs under experimental (Exp) filter paper disk [3, 28]: 3

CCCC(=O)O[Si](C)(C)C [Trimethylsilyl butyrate, trimethylsilyl butyrate]
% Bed bugs in Experimental Zone [2]: 9%
Attraction of bed bugs to gaseous mixture [2]: attracted

CCC/C=C/C(OCC)OCC [trans-2-hexen-1-al diethylacetal]
% Bed bugs in Experimental Zone [2]: 28.0%
Attraction of bed bugs to gaseous mixture [2]: attracted
